Experimental data taken from US20100190694A1, “Methods for identifying patients who will respond well to cancer treatment” (priority 2009, published 2010).
pIC50: −log10 of the molar value. Several values for one entry are separate records, joined by “and”; a condition that tells them apart may be missing. Equal values may be shown once. Marks after values point to notes of the source that are not given here.

Assays:
[1] = Phase I study: pharmacokinetics of Bel; assay type: in vivo, human; conditions: human, in vivo, intravenous, belinostat 1000 mg/m^2/day in combination with FU, Cycle 2 Day 5, n = 13
Text: (§1) Phase I dose-escalation, multi-center study with the objectives to assess: • maximum tolerated dose and dose limiting toxicities (DLT) of Bel in combination with FU • impact of Bel on expression of TS, dihydropyrimidine dehydrogenase (DPD), and p21, in tumor and non-tumor surrogate tissue (peripheral blood mononuclear cells; PBMC) • preliminary anti-tumor activity of Bel in combination with FU • impact of Bel on ECG parameters • pharmacokinetics (PK) of Bel when given in combination with FU
Treatment cycles of 21 days included Bel alone in cycle 1, and Bel in combination with FU in all subsequent cycles (FIG. 4). Treatment was to continue until significant treatment-related toxicity or progressive disease.

tumour = experiment: xenograft models, tumour growth; conditions: in vivo
[2] = system: dihydropyrimidine dehydrogenase (DPD); experiment: DPD mRNA by RTQ-PCR in tumor biopsies; assay type: in vivo, human
Experimental: (§2) DLTs, i.e. grade ¾ non-hematologic toxicities and grade 4 neutropenia or thrombocytopenia, were determined in cycles 1 and 2. Safety was assessed by NCI CTC (v. 3) and efficacy by RECIST criteria. Expression of TS, DPD, and p21 mRNA was measured by RTQ-PCR in PBMC (20 patients at baseline, and pre-dosing, 6 and 24-hours post-dosing, on days 1 and 4 in cycle 1) and in tumor biopsies (8 patients at baseline and once on days 4 or 5 in cycle 1). Results were expressed as gene expression relative to actin (i.e. TS/Actin Relative Gene Expression, DPD/Actin Relative Gene Expression, and p21/Actin Relative Gene Expression).

[3] = system: diverse tumour cell lines; experiment: proliferation of diverse tumour cell lines; assay type: cell-based; conditions: range over cell lines; read-out: IC50, blocks proliferation of diverse tumour cell lines
[4] = system: dihydropyrimidine dehydrogenase (DPD); experiment: DPD mRNA by RTQ-PCR in PBMC; assay type: in vivo, human; conditions: for DPD maximum percentage change versus baseline: one value per patient
Experimental: as §2

[5] = system: thymidylate synthase (TS); conditions: HCT116 colon cancer cells, in vitro; cited from earlier work
p21 = p21 mRNA by RTQ-PCR in tumor biopsies; assay type: in vivo, human; conditions: for patients with up-regulation of p21 in tumor tissue: Bel monotherapy, Bel 1000 mg/m^2/day
Experimental: as §2

[6] = system: TS, DPD, and p21 expression in PBMC; experiment: '2 out of 3' TS/DPD/p21 expression pattern in PBMC versus clinical outcome; assay type: in vivo, human
Text: Among the 20 patients where an attempt was made to analyze TS, DPD, and p21 in PBMC, 2 patients seemed to have a clearly favorable clinical outcome (patients 101-3 and 102-14 with treatment durations on Bel/FU of 8 and 14 cycles, respectively; see Tables 4 and 6), i.e. a 10% favorable outcome rate without selection.
If selection of patients for treatment with Bel/FU would have been done after an initial-dose of Bel and analyses of TS, DPD, and p21 expression in PBMC 6-hours post Bel dosing, the favorable outcome rate could have been increased to between 33% and 67% by selection of patients based on a “2 out of 3” positive expression pattern (positive assumed to be TS down-, DPD down-, and p21 up-regulation in comparison to a pre-treatment value).
Selection based on one single sample taken 6-hours post Bel dosing (Table A): 6 (30%; patients 101-3/5/6/7, 102-6/14) of the 20 patients have “2 out of 3” markers showing a favorable expression change after Bel dosing, and 2 (33%) of the 6 patients have clearly favorable clinical outcomes. Note, also patients 101-6 and 101-7 with a “2 out of 3” pattern, but not counted as having “clearly favorable clinical outcome” have longer than median treatment durations on Bel/FU (i.e. 4 cycles; see Table 4).
Selection based on mean of two samples taken 6-hours post Bel dosing (Table B): 3 (15%; patients 101-3, 102-6/14) of the 20 patients have “2 out of 3” markers showing a favorable expression change after Bel dosing, and 2 (67%) of the 3 patients have clearly favorable clinical outcomes.
as §2

[7] = parameters: species or system human; conditions: in vivo
Experimental: Cardiac safety was analyzed by extensive ECG monitoring (>3.000 ECG's assessed) in combination with PK assessments of Bel. Based on analyses by a central laboratory, the main findings (mean changes from baseline at the different dose-levels and for Bel alone and in combination with FU) were: • Heart rate, changes of −1 to +11 bpm, without outliers or any dose relationship. • PR duration, changes of −8 to +2 ms, without outliers or any dose relationship. • QRS duration, changes of −3 to +4 ms, without outliers or any dose relationship. • QTcF duration, changes of −4 to +18 ms, without any dose relationship. One outlier pat with a new QTcF value >500 ms was identified at dose-level 1000/750 (max post-infusion QTcF value 522 ms from pre-infusion value of 487 ms).
as §1

[8] = system: rapidly proliferating cells; experiment: cell cycle arrest and apoptosis; assay type: cell-based
[9] = system: thymidylate synthase (TS); experiment: TS mRNA by RTQ-PCR in tumor biopsies; assay type: in vivo, human; conditions: Bel monotherapy, Bel 1000 mg/m^2/day, patients with pre- and post-Bel samples
Experimental: as §2

[10] = patient tumor samples, cycle 1 day 4 or 5, Bel 1000 mg/m^2/day, one value per patient, listed as belinostat

O=C(/C=C/c1cccc(S(=O)(=O)Nc2ccccc2)c1)NO [PXD-101]
AUC ([1]; read-out: AUCall, group mean (±SD)): 33200 ng·h/mL | Cmax ([1]; read-out: Cmax, group mean (±SD)): 49500 ng/mL | half-life ([1]; read-out: T1/2, group mean (±SD) (converted)): 1.2 h | tumour growth in xenograft models (tumour): slows tumour growth | DPD expression change in tumor tissue ([2]; Bel monotherapy, Bel 1000 mg/m^2/day): minor changes | DPD Change vs baseline [2, 10]: ≈ | pIC50 [3]: 5.61 to 7.10 | 6mean-DPD, Change from baseline at 6 h based on mean of d1 + d4 ([4]; PXD 300, one value per patient): 131% | D1-6: DPD, Change from baseline at 6 h day 1 ([4]; PXD 300, one value per patient): 136% | D1-6: DPD, Change from baseline at 6 h day 1 ([4]; PXD 600, one value per patient, listed as PXD): 30% and −87% and −56% and −13% | 6mean-DPD, Change from baseline at 6 h based on mean of d1 + d4 ([4]; PXD 600, one value per patient, listed as PXD, with FU dose 250): −22% and −37% and −13% | 6mean-DPD, Change from baseline at 6 h based on mean of d1 + d4 ([4]; PXD 600, one value per patient, listed as PXD, with FU dose 1000): −59% | D1-6: DPD, Change from baseline at 6 h day 1 ([4]; PXD 1000, one value per patient, listed as PXD): −55% and −57% and 78% and −62% and −28% and 373% and 14% and 6% and 160% and −20% and 547% | 6mean-DPD, Change from baseline at 6 h based on mean of d1 + d4 ([4]; PXD 1000, one value per patient, listed as PXD, with FU dose 250): −55% and 8% and 124% and −22% and 267% and 372% | 6mean-DPD, Change from baseline at 6 h based on mean of d1 + d4 ([4]; PXD 1000, one value per patient, listed as PXD, with FU dose 500): 278% and 56% | 6mean-DPD, Change from baseline at 6 h based on mean of d1 + d4 ([4]; PXD 1000, one value per patient, listed as PXD, with FU dose 1000): 15% and 73% and −20% | DPD maximum percentage change versus baseline ([4]; cycle 1, Belinostat Dose 300 mg/m^2/day): 136% | DPD maximum percentage change versus baseline ([4]; cycle 1, Belinostat Dose 600 mg/m^2/day): −74% * and −87% * and −73% * and −13% * | DPD maximum percentage change versus baseline ([4]; cycle 1, Belinostat Dose 1000 mg/m^2/day): 547% and 91% and 220% and 169% and −83% * and 563% and 373% and 98% and −60% * and 160% and −20% * and 62% | expression of thymidylate synthase (TS) [5]: reduce the expression | patients with up-regulation of p21 in tumor tissue (p21; listed as Bel): Three of 4 | patients with up-regulation of p21 in tumor tissue (p21; listed as belinostat): 3 of the 4 | p21 Change vs baseline (p21; [10]): ≈ | patients with '3 of 3 correct' marker pattern ([6]; 6 h, mean of d1 + d4): 2 pts | patients with '2 of 3 correct' marker pattern (down TS-down DPD-up p21) ([6]; 6 h, mean of d1 + d4, of 20 patients): 3 pts | patients with '3 of 3 correct' marker pattern ([6]; 6 h day 1): 2 pts | patients with '2 of 3 correct' marker pattern (down TS-down DPD-up p21) ([6]; 6 h day 1, of 20 patients): 6 pts | max post-infusion QTcF value of the one outlier pat ([7]; human): 522 ms | effect on heart rate, AV conduction, cardiac depolarization, morphology or cardiac re-polarization [7]: no clear signal of any clinically relevant effect | cell cycle arrest and apoptosis [8]: causes cell cycle arrest and apoptosis | patients with TS down-regulated in tumor tissue ([9]; listed as Bel): 4 of 4 | patients with TS down-regulated in tumor tissue ([9]; listed as belinostat): Four of 4
